Assays:
rat NaP2b (SLC34A2) [1] = target: T1, rat NaP2b (SLC34A2) (Rattus norvegicus, UniProt Q9JJ09); assay: NaP2b-mediated Pi transport (33P uptake) in transfected HEK293 cells, rat NaP2b; assay type: cell-based
T1 construct: host or cells: HEK293
T1 sequence (Q9JJ09 1-695): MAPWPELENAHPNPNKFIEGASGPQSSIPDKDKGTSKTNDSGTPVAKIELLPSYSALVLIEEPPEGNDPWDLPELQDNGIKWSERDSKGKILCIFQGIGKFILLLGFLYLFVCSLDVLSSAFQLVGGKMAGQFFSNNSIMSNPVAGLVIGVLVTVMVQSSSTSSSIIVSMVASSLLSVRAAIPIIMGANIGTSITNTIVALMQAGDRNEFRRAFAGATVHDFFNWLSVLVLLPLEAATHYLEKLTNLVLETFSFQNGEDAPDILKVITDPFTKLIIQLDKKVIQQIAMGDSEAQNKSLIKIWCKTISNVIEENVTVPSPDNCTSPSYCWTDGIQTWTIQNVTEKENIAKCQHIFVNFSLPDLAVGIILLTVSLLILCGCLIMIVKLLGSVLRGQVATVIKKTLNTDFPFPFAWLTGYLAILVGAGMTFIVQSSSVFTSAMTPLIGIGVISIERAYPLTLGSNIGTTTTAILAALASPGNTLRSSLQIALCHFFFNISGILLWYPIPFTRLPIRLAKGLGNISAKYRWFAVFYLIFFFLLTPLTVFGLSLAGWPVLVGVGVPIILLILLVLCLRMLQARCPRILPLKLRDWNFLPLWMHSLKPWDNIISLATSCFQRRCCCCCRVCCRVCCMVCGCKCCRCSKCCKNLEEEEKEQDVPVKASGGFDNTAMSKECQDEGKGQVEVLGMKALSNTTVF
Experimental: (§1) HEK293 cells were obtained from the American Type Culture collection and propagated per their instructions. Expression clones for rat and human NaP2b (SLC34A2) were obtained from Open Biosystems (Catalog numbers MRN1768-9510282, and MHS1010-99823026, respectively). The sequence of the human protein was mutated to insert a threonine after residue 37, and to introduce a N39D mutation.
(§2) The rate of phosphate (Pi) uptake into HEK293 cells was measured using a modification of the method described by Mohrmann et al. (Mohrmann, I., Mohrmann, M., Biber, J., and Murer, H. (1986) Am. J. Phys. 250(3 Pt 1):G323-30.) Transfected HEK293 cells were treated with a pharmacological agent to minimize endogenous PiT-mediated phosphate transport activity, such that the only remaining sodium-dependent phosphate transport activity is that which was bestowed by introduction of the NaP2b genes.
(§3) Cells were seeded into 96-well plates at 25,000 cells/well and cultured overnight. Lipofectamine 2000 (Invitrogen) was used to introduce the NaP2b cDNA, and the cells were allowed to approach confluence during a second overnight incubation. […] Cells were then overlayed with either choline uptake buffer or sodium uptake buffer (14 mM Tris, 137 mM sodium chloride, 5.4 mM KCl, 2.8 mM CaCl2, 1.2 mM MgSO4, 100 uM KH2PO4, PiT-silencing agent, 1 mg/mL Bovine Serum Albumin, pH 7.4) containing 6-9 uCi/mL ^33P orthophosphoric acid (Perkin Elmer) and test compound. Each compound was tested at twelve concentrations ranging from 0.1 nM to 30 uM. Assays were run in duplicate.
(§4) After incubation for 3-30 minutes at room temperature, assay mixtures were removed, and the cells were washed twice with ice cold stop solution (137 mM sodium chloride, 14 mM Tris, pH 7.4). Cells were lysed by addition of 20 μL 0.1% Tween 80 followed by 100 μL scintillation fluid, and counted using a TopCount (Perkin Elmer).
(§5) pIC50 (the negative log of the IC50) values of the test compounds were calculated using GraphPad Prism.
HEK293 cells were obtained from the American Type Culture collection and propagated per their instructions. Expression clones for rat and mouse NaP2b (SLC34A2) cDNAs were obtained from Open Biosystems (Catalog numbers MRN1768-9510282 and MMM1013-98478398 respectively).
as §2, with “phosphate” for “phosphate (Pi)”
as §3, with “agent, 0.1% wt/v bovine serum albumin,” for “agent, 1 mg/mL Bovine Serum Albumin,”, “Each compounds” for “Each compound”
After incubation for 3-30 minutes at room temperature, assay mixtures were removed, and the cells were washed twice with ice cold stop solution (137 mM sodium chloride, 14 mM Tris, pH 7.4).

[2] = Stability of compounds in simulated gastric and intestinal fluid; assay type: in vitro ADME; conditions: Structure (V) examples, Table 3, 3 hr
Experimental: (§6) Test compounds were incubated at 1-20 μM in simulated gastric fluid (SGF; standard USP solution with 3 mg/mL pepsin) or simulated intestinal fluid (SIF; standard USP solution with 3 mg/mL pancreatin) for 3 hr or 6 hr. HPLC-UV or HPLC-MS were used to determine test compound levels using peak area %. Results (Table 5) were reported as the percentage of test compound remaining after incubation in a given condition relative to test compound present at t=0 in the same condition.
as §6, with “3” for “3 hr or 6”, “3)” for “5)”

rat NaP2b (SLC34A2) [3] = target: T1, rat NaP2b (SLC34A2); assay: Inhibition of NaP2b-mediated Pi (33P) uptake in transfected HEK293 cells, rat NaP2b; assay type: cell-based; conditions: 33P Pi uptake, 0.1 mM phosphate, value given as pIC50 range
In short: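 HEK293 cells were transiently transfected with NaP2b cDNA using Lipofectamine and grown near confluence. Compounds were tested at twelve concentrations from 0.1 nM to 30 uM in duplicate, and 33P-phosphate uptake was counted by scintillation after lysis. Results are expressed as pIC50.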

[4] = tested on: Uptake of Phosphorus from the Intestine; assay: In vivo bolus phosphorus challenge; set-up: species or system rat; conditions: Sprague-Dawley rats on low-phosphorus diet; oral Drug Dose 30, 15 min before phosphate bolus; serum 30 min post bolus
Experimental: By pretreating animals with a low phosphorus diet followed by the subsequent dosing of a phosphorus bolus, serum phosphorus levels were monitored after 30 minutes as a surrogate for intestinal phosphorus absorption. […] The in vivo bolus phosphorus challenge model used here mimics this model in rats.
Male, 7-week-old Sprague-Dawley rats (Charles-River laboratories international, Hollister, Calif.) were allowed to acclimatize for a minimum of 3 days before switching to a synthetic low-phosphorus diet (TD.85010, Harlan Teklad, Madison, Wis.) which contains 0.1% phosphorus and 0.6% calcium. At day 5, testing compounds or vehicle alone (as indicated) were orally administered at the indicated dose in a volume of 5 ml/kg, followed by a bolus gavage of monobasic sodium phosphate (1 mmol in 1 ml) 15 min after compound dosing. Serum was collected via retroorbital bleeding 30 min post phosphate bolus and phosphate levels were determined utilizing an ACE ALERA blood chemistry analyzer (Alfa Wassermann Diagnostic Technologies, West Caldwell, N.J.).
The extent of inhibition by test compounds on the elevation of serum phosphate levels in response to the bolus of phosphorus is shown in Table 12 (data are expressed as % Inhibition, with 6-10 animals per data point). The differences between groups were evaluated by one-way analysis of variance with Dunnett's post hoc tests.

NaPi2b [5] = assay: Competition with phosphate: Pi uptake assay repeated at 2.1 vs 0.1 mM phosphate; assay type: cell-based; conditions: potency at 2.1 vs 0.1 mM phosphate
Source text: For example, a phosphate uptake assay can be performed and the IC50 values for a compound at different phosphate concentrations can be determined (e.g., “Enzyme kinetics”, I. Segel, 1975, John-Wiley & Sons, p. 123). IC50 values for non-competitive inhibitors will remain the same or similar with respect to the phosphate concentration, whereas IC50 values for competitive inhibitors will increase (i.e lose potency) as phosphate concentration increases.
(§7) To ascertain if an inhibitor was competitive for binding with phosphate, the procedure was repeated, but raising the concentration of the substrate in the assay mixture from 0.1 to 2.1 mM phosphate.

NaPi2b [6] = target: T2, NaPi2b (Rattus norvegicus, UniProt Q9JJ09); assay: Competition with phosphate: Pi transport assay repeated at 2.1 vs 0.1 mM phosphate; assay type: cell-based; conditions: potency at 2.1 vs 0.1 mM phosphate
T2 construct: host or cells: HEK293
T2 sequence (Q9JJ09 1-695): T1 sequence (Q9JJ09 1-695)
Experimental: as §7

[7] = Determination of compound Cmax and AUC after oral gavage (plasma LC-MS/MS); assay type: in vivo, Sprague-Dawley rats; conditions: Sprague-Dawley, rat, plasma, po, Structure (II) examples, Table 6, actual oral dose 7.6-11 mg/kg
In short: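 Sprague-Dawley rats dosed by oral gavage at nominal 2.5 or 10 mg/kg; blood drawn at 0.5, 1, 2 and 4 h into K2EDTA. Plasma protein-precipitated with acetonitrile plus internal standard and analysed by LC-MS/MS against a plasma standard curve to derive Cmax and AUC.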

human NaP2b (SLC34A2) = target: T3, human NaP2b (SLC34A2) (Homo sapiens, UniProt O95436); assay: NaP2b-mediated Pi transport (33P uptake) in transfected HEK293 cells, human NaP2b; assay type: cell-based; conditions: Structure (II) examples, Table 2; HEK293, 0.1 mM phosphate; read-out: pIC50 range for human Nap2b (converted)
T3 construct: host or cells: HEK293
T3 sequence (O95436 1-690): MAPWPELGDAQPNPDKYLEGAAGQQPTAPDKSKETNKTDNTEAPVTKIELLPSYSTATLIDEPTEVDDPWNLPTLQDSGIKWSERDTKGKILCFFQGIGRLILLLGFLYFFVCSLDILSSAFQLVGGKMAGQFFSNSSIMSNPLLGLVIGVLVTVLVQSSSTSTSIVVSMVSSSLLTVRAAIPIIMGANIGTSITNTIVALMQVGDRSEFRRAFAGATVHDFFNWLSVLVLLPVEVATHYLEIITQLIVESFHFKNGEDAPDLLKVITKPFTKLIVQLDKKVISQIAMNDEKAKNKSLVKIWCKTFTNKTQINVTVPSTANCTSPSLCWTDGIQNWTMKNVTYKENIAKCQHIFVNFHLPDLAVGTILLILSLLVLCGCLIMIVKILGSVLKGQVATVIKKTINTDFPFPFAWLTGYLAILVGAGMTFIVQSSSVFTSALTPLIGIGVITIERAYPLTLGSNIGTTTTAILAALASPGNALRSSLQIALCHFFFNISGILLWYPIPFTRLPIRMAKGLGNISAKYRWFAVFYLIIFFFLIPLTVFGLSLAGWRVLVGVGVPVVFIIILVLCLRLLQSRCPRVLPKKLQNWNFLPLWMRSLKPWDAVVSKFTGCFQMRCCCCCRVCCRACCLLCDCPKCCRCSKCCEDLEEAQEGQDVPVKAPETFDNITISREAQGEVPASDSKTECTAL
Experimental: as §1, §2
Cells were seeded into 96-well plates at 25,000 cells/well and cultured overnight. […]
as §4, §5

SMILES: O=C(O)CNC(=O)CCSCc1cccc(C(=O)Nc2ccc(N3CCCCC3)cc2C(=O)N/N=C/c2ccc(Cl)c(C(F)(F)F)c2)c1 [Ex. 50, (E)-2-(3-(3-(2-(2-(4-chloro-3-(trifluoromethyl)benzylidene)hydrazinecarbonyl)-4-(piperidin-1-yl)phenylcarbamoyl)benzylthio)propanamido)acetic acid]
- IC50 (rat NaP2b (SLC34A2) [1]; Structure (V) examples, Table 2, rat NaP2b, HEK293, read-out: pIC50 Range (converted)): 100 to 794 nM
- % remaining, SGF ([2]; simulated gastric fluid): 7%
- % remaining, SIF ([2]; simulated intestinal fluid): 90%

SMILES: O=C(O)CCSCc1cccc(C(=O)Nc2ccc(N3CCCCC3)cc2-c2cc(C(=O)NCc3cc(C(F)(F)F)cc(C(F)(F)F)c3)ccn2)c1 [Example 1.32]
- IC50 (rat NaP2b (SLC34A2) [3]): 1000 to 7940 nM
- % Inhibition of Serum P elevation [4]: 20-30%

SMILES: O=C(O)P(=O)(O)O [PFA]
- pIC50 range for rat Nap2b (rat NaP2b (SLC34A2) [3]): 2-3
- Competitive with respect to Pi? (NaPi2b [5]): Yes
- pIC50 range for rat Nap2b (rat NaP2b (SLC34A2) [1]; Structure (II) examples, Table 2, HEK293, 0.1 mM phosphate): 2-3
- pIC50 range for rat Nap2b (rat NaP2b (SLC34A2) [1]; Structure (III) examples, Table 2, HEK293, 0.1 mM phosphate): 2-3
- pIC50 range for rat Nap2b (rat NaP2b (SLC34A2) [1]; Structure (IV) examples, Table 1, HEK293, 0.1 mM phosphate): 2-3
- Competitive with respect to Pi? (NaPi2b [6]; Structure (II) examples, Table 2): Yes
- Competitive with respect to Pi? (NaPi2b [6]; Structure (III) examples, Table 2): Yes
- Competitive with respect to Pi? (NaPi2b [6]; Structure (IV) examples, Table 1): Yes

SMILES: O=C(NCCN1CCOCC1)c1cccc(C(=O)Nc2ccc(N3CCCCC3)cc2-c2cc(C(=O)NCc3cccc(C(F)(F)F)c3)ccn2)c1 [Example 4.4, N1-(2-Morpholinoethyl)-N3-(4-(piperidin-1-yl)-2-(4-((3-(trifluoromethyl)benzyl)carbamoyl)pyridin-2-yl)phenyl)isophthalamide]
- IC50 (rat NaP2b (SLC34A2) [3]): 10000 to 31600 nM
- % Inhibition of Serum P elevation [4]: 40-50%

SMILES: O=C(O)CCOCCOCCOCCNC(=O)c1cccc(C(=O)Nc2ccc(Cl)cc2C(=O)Nc2ccn(-c3cccc(C(F)(F)F)c3)n2)c1 [Example 25]
- Cmax [7]: 3 ng/mL
- IC50 (rat NaP2b (SLC34A2) [1]; Structure (II) examples, Table 2, HEK293, 0.1 mM phosphate, read-out: pIC50 range for rat Nap2b (converted)): < 1000 nM
- IC50 (human NaP2b (SLC34A2)): < 1000 nM

Source: US20140023611A1 (priority 2010, published 2014)
